# Results published in ChEMBL document CHEMBL3991601, “The target landscape of clinical kinase drugs” (Science, 2017).
# Activity calls are given as the source filed them. Rule as the data show it, for most assays here: actives have a measured Kd and inactives only a lower limit.
# Molecular target: T1, Cyclin-G-associated kinase (Homo sapiens, UniProt O14976)
# T1 sequence (O14976 whole entry): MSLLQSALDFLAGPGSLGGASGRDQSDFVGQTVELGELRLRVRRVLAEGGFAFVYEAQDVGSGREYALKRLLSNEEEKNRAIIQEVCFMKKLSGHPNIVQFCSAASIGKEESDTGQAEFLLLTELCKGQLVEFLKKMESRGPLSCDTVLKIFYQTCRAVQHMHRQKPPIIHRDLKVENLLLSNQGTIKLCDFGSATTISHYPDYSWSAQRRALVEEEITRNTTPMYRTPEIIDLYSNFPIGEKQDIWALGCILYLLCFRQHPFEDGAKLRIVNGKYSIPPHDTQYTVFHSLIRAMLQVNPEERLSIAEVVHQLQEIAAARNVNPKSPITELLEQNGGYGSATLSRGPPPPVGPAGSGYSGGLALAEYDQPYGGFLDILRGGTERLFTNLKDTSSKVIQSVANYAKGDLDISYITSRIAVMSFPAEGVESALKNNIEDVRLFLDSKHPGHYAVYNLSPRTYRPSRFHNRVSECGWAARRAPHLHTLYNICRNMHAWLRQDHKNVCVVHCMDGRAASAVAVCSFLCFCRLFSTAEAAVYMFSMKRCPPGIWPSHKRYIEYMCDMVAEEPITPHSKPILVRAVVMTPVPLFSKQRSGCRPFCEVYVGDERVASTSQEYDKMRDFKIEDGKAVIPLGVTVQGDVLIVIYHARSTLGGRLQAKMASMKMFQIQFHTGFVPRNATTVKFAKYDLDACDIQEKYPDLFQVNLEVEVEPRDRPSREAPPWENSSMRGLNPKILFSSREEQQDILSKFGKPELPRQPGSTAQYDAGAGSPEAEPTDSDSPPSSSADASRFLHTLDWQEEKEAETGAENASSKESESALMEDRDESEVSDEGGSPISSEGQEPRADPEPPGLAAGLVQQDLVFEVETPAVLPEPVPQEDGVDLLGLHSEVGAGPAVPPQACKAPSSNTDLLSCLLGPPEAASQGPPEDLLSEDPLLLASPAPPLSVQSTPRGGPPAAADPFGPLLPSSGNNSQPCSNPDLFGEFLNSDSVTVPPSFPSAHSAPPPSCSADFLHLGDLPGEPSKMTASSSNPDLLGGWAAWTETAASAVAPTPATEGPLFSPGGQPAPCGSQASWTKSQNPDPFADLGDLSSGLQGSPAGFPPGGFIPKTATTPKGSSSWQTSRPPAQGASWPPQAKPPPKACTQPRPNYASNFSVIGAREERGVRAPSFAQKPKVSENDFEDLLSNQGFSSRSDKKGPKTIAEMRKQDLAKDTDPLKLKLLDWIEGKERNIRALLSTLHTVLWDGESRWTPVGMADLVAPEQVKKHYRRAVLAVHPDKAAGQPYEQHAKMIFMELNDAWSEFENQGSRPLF
# Also: in the data inactive means no Kd found up to 30 µM.
row,Structure (SMILES),Kd
1,C[C@@H]1CN(Cc2ccc(F)cc2)[C@@H](C)CN1C(=O)c1cc2c(C(=O)C(=O)N(C)C)cn(C)c2cc1Cl [TALMAPIMOD],> 30 µM (inactive)
2,CN1CCC(COc2cnc(-c3cccc(Cn4nc(-c5cccc(C#N)c5)ccc4=O)c3)nc2)CC1 [TEPOTINIB],> 30 µM (inactive)
3,O=c1sn(-c2cccc3ccccc23)c(=O)n1Cc1ccccc1 [TIDEGLUSIB],> 30 µM (inactive)
4,COc1cc2nccc(Oc3ccc(NC(=O)Nc4cc(C)on4)c(Cl)c3)c2cc1OC [TIVOZANIB],> 30 µM (inactive)
5,CC(=O)Nc1cccc(-n2c(=O)n(C3CC3)c(=O)c3c(Nc4ccc(I)cc4F)n(C)c(=O)c(C)c32)c1 [TRAMETINIB],> 30 µM (inactive)

# Molecular target: Tyrosine-protein kinase CSK (Homo sapiens, UniProt P41240)
# Sequence (P41240 whole entry): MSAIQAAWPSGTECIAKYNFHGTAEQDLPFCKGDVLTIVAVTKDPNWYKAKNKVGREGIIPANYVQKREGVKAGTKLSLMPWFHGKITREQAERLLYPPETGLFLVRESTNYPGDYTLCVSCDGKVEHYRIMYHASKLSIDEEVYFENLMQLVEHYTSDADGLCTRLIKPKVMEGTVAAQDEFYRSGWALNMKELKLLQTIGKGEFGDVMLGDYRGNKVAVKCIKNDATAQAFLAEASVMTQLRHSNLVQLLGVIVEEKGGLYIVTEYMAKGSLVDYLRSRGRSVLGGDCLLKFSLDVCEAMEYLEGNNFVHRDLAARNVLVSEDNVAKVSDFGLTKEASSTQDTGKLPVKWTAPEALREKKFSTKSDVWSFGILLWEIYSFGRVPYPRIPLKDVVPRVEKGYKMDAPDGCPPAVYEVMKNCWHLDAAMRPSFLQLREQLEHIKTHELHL
row,Structure (SMILES),Kd
1,C[C@@H]1CN(Cc2ccc(F)cc2)[C@@H](C)CN1C(=O)c1cc2c(C(=O)C(=O)N(C)C)cn(C)c2cc1Cl [TALMAPIMOD],> 30 µM (inactive)
2,CN1CCC(COc2cnc(-c3cccc(Cn4nc(-c5cccc(C#N)c5)ccc4=O)c3)nc2)CC1 [TEPOTINIB],> 30 µM (inactive)
3,O=c1sn(-c2cccc3ccccc23)c(=O)n1Cc1ccccc1 [TIDEGLUSIB],> 30 µM (inactive)
4,COc1cc2nccc(Oc3ccc(NC(=O)Nc4cc(C)on4)c(Cl)c3)c2cc1OC [TIVOZANIB],> 30 µM (inactive)
5,CC(=O)Nc1cccc(-n2c(=O)n(C3CC3)c(=O)c3c(Nc4ccc(I)cc4F)n(C)c(=O)c(C)c32)c1 [TRAMETINIB],> 30 µM (inactive)

# Molecular target: T2, AarF domain-containing protein kinase 1 (Homo sapiens, UniProt Q86TW2)
# T2 sequence (Q86TW2 whole entry): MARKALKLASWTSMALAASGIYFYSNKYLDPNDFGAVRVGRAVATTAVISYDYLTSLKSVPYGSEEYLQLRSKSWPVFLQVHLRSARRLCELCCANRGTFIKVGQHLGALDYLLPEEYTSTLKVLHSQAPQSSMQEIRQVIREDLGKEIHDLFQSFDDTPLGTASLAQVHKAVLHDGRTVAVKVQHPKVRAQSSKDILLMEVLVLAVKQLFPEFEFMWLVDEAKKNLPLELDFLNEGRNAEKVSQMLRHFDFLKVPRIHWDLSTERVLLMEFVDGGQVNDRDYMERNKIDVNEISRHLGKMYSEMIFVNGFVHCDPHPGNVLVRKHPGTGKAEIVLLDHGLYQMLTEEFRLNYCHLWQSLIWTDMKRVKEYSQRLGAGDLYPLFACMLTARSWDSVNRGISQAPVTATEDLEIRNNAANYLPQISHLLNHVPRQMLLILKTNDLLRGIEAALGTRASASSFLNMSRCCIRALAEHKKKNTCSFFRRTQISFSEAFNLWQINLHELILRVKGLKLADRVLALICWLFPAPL
row,Structure (SMILES),Kd
1,C[C@@H]1CN(Cc2ccc(F)cc2)[C@@H](C)CN1C(=O)c1cc2c(C(=O)C(=O)N(C)C)cn(C)c2cc1Cl [TALMAPIMOD],> 30 µM (inactive)
2,CN1CCC(COc2cnc(-c3cccc(Cn4nc(-c5cccc(C#N)c5)ccc4=O)c3)nc2)CC1 [TEPOTINIB],> 30 µM (inactive)
3,O=c1sn(-c2cccc3ccccc23)c(=O)n1Cc1ccccc1 [TIDEGLUSIB],> 30 µM (inactive)
4,COc1cc2nccc(Oc3ccc(NC(=O)Nc4cc(C)on4)c(Cl)c3)c2cc1OC [TIVOZANIB],> 30 µM (inactive)
5,CC(=O)Nc1cccc(-n2c(=O)n(C3CC3)c(=O)c3c(Nc4ccc(I)cc4F)n(C)c(=O)c(C)c32)c1 [TRAMETINIB],> 30 µM (inactive)

# Molecular target: Cyclin-dependent kinase 13 (Homo sapiens, UniProt Q14004)
# Sequence (Q14004 whole entry): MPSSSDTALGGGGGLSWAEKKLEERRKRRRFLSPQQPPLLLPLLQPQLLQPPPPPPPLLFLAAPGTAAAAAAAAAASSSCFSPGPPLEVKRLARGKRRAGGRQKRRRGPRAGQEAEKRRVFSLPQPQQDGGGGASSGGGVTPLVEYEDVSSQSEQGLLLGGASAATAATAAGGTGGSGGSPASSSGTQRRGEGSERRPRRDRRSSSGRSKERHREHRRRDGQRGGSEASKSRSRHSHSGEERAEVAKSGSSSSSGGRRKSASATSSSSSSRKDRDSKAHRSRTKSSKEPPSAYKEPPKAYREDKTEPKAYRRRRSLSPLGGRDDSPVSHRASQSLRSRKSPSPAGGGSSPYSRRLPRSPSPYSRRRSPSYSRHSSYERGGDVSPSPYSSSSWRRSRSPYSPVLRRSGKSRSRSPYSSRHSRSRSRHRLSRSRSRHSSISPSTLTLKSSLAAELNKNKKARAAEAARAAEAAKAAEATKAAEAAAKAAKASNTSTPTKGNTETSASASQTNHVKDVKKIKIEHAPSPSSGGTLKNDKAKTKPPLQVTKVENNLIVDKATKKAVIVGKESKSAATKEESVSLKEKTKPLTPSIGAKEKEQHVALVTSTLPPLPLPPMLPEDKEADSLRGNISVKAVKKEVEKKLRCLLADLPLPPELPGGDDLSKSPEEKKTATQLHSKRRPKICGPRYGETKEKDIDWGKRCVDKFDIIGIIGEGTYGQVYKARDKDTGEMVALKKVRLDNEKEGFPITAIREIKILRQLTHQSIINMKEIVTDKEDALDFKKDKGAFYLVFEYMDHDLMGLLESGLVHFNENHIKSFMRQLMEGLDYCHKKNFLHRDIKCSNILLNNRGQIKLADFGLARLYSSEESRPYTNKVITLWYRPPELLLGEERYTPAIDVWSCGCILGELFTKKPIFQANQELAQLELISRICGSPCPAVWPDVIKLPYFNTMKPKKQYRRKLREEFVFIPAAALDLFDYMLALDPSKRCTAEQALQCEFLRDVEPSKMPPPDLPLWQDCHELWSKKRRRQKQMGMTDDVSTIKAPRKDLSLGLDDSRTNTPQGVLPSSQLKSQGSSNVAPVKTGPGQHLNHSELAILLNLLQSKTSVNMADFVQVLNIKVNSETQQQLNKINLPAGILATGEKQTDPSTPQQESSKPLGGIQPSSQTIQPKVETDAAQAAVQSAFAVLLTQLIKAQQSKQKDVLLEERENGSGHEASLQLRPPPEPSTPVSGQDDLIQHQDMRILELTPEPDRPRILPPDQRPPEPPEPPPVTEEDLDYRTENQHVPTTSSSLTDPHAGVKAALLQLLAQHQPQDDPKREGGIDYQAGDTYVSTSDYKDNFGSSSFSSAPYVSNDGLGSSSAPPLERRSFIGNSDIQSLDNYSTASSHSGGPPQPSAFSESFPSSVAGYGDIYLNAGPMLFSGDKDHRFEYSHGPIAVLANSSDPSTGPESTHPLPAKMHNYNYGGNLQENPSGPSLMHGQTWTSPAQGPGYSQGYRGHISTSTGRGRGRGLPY
row,Structure (SMILES),Kd
1,C[C@@H]1CN(Cc2ccc(F)cc2)[C@@H](C)CN1C(=O)c1cc2c(C(=O)C(=O)N(C)C)cn(C)c2cc1Cl [TALMAPIMOD],> 30 µM (inactive)
2,CN1CCC(COc2cnc(-c3cccc(Cn4nc(-c5cccc(C#N)c5)ccc4=O)c3)nc2)CC1 [TEPOTINIB],> 30 µM (inactive)
3,O=c1sn(-c2cccc3ccccc23)c(=O)n1Cc1ccccc1 [TIDEGLUSIB],> 30 µM (inactive)
4,COc1cc2nccc(Oc3ccc(NC(=O)Nc4cc(C)on4)c(Cl)c3)c2cc1OC [TIVOZANIB],> 30 µM (inactive)
5,CC(=O)Nc1cccc(-n2c(=O)n(C3CC3)c(=O)c3c(Nc4ccc(I)cc4F)n(C)c(=O)c(C)c32)c1 [TRAMETINIB],> 30 µM (inactive)

# Molecular target: T3, Bifunctional phosphoribosylaminoimidazole carboxylase/phosphoribosylaminoimidazole succinocarboxamide synthetase (Homo sapiens, UniProt P22234)
# T3 sequence (P22234 whole entry): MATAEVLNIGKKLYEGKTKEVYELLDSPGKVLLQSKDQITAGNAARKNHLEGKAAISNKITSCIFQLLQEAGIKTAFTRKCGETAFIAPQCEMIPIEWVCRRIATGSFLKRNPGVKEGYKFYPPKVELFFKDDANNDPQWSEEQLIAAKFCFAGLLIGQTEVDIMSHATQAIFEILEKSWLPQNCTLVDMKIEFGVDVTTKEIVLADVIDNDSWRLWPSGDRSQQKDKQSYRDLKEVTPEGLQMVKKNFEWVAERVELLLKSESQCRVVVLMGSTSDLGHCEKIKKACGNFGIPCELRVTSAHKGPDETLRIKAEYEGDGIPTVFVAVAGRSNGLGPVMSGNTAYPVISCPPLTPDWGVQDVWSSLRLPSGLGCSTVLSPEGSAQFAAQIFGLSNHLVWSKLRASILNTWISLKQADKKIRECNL
row,Structure (SMILES),Kd
1,C[C@@H]1CN(Cc2ccc(F)cc2)[C@@H](C)CN1C(=O)c1cc2c(C(=O)C(=O)N(C)C)cn(C)c2cc1Cl [TALMAPIMOD],> 30 µM (inactive)
2,CN1CCC(COc2cnc(-c3cccc(Cn4nc(-c5cccc(C#N)c5)ccc4=O)c3)nc2)CC1 [TEPOTINIB],> 30 µM (inactive)
3,O=c1sn(-c2cccc3ccccc23)c(=O)n1Cc1ccccc1 [TIDEGLUSIB],> 30 µM (inactive)
4,COc1cc2nccc(Oc3ccc(NC(=O)Nc4cc(C)on4)c(Cl)c3)c2cc1OC [TIVOZANIB],> 30 µM (inactive)
5,CC(=O)Nc1cccc(-n2c(=O)n(C3CC3)c(=O)c3c(Nc4ccc(I)cc4F)n(C)c(=O)c(C)c32)c1 [TRAMETINIB],> 30 µM (inactive)

# Molecular target: Protein kinase C beta type (Homo sapiens, UniProt P05771)
# Sequence (P05771 whole entry): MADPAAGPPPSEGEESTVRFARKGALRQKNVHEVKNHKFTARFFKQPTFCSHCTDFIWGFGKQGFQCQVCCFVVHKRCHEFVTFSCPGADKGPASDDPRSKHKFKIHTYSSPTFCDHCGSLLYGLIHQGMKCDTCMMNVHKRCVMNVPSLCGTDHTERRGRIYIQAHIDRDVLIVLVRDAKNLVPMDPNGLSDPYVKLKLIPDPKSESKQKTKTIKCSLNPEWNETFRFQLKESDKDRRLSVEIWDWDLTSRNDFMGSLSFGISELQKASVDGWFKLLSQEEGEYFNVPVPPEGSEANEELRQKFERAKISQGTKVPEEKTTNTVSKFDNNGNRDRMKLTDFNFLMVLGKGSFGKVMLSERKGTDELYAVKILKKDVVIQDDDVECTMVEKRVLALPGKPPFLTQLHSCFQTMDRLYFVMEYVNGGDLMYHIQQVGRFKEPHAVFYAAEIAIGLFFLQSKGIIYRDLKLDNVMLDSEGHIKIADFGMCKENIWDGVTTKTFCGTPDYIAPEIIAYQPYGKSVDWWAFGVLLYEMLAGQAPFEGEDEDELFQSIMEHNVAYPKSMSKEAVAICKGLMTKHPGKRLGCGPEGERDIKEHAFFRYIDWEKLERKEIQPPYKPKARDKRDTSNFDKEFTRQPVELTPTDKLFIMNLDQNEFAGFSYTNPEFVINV
row,Structure (SMILES),Kd
1,C[C@@H]1CN(Cc2ccc(F)cc2)[C@@H](C)CN1C(=O)c1cc2c(C(=O)C(=O)N(C)C)cn(C)c2cc1Cl [TALMAPIMOD],> 30 µM (inactive)
2,CN1CCC(COc2cnc(-c3cccc(Cn4nc(-c5cccc(C#N)c5)ccc4=O)c3)nc2)CC1 [TEPOTINIB],> 30 µM (inactive)
3,O=c1sn(-c2cccc3ccccc23)c(=O)n1Cc1ccccc1 [TIDEGLUSIB],> 30 µM (inactive)
4,COc1cc2nccc(Oc3ccc(NC(=O)Nc4cc(C)on4)c(Cl)c3)c2cc1OC [TIVOZANIB],> 30 µM (inactive)
5,CC(=O)Nc1cccc(-n2c(=O)n(C3CC3)c(=O)c3c(Nc4ccc(I)cc4F)n(C)c(=O)c(C)c32)c1 [TRAMETINIB],> 30 µM (inactive)
